Laboratory results as given in the supplement of paper PMC12317010.
Where a name gives a salt, the structure may show the parent alone.

Test: collision cross section in nitrogen (drift tube, single-field); higher = larger gas-phase ion size
[1] = ion type: [M+H], ion source: APCI, ion mode: Positive
[2] = ion type: [M+H], ion source: ESI, ion mode: Positive
[3] = ion type: [M+Na], ion source: ESI, ion mode: Positive
[4] = ion type: [M-H], ion source: ESI, ion mode: Negative
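Further: chemical standards at 10 µM analysed by drift tube IMS-QTOF MS in about 3.95 torr nitrogen, mean of duplicate injections differing ≤1%, mass error below 10 ppm.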

SMILES | collision cross section in nitrogen [1] [Å²] | collision cross section in nitrogen [2] [Å²] | collision cross section in nitrogen [3] [Å²] | collision cross section in nitrogen [4] [Å²] | collision cross section in nitrogen (ion type: [M+], ion source: APCI, ion mode: Positive) [Å²]
CCCCCCCCCCCC[N+](C)(C)[O-] [N,N-Dimethyldodecylamine-N-oxide] | 175.3 | 174.4 | 170.8 | – | –
CCCCCCCC(=O)N(C)C [N,N-Dimethyloctanamide] | 146.6 | 146.8 | – | – | –
CN(C)c1ccncc1 [N,N-dimethylpyridin-4-amine] | 120.6 | 120.5 | – | – | –
CCC(CC)Nc1ccc(C)c(C)c1 [N-(1-Ethylpropyl)-3,4-xylidine] | – | – | 151.1 | – | –
CCCCCCC(C)Nc1ccc(Nc2ccccc2)cc1 (stereo not drawn) [N-(1-Methylheptyl)-N'-phenyl-1,4-benzenediamine] | – | – | 190 | – | –
CC(=O)CC(=O)Nc1ccc(C)cc1C [N-(2,4-Dimethylphenyl)-3-oxobutanamide] | 147.7 | – | 160.6 | 148.8 | –
CC(=O)Nc1ccc(C)cc1C [N-(2,4-Dimethylphenyl)acetamide] | – | 136.2 | – | – | –
Cc1ccc(NC=O)c(C)c1 [N-(2,4-Dimethylphenyl)formamide] | – | – | – | 133.8 | –
COc1ccc(OC)c(NC(=O)CC(C)=O)c1 [N-(2,5-Dimethoxyphenyl)-3-oxobutanamide] | – | – | 159.2 | 154.4 | –
O=C(Nc1ccc2c(c1)Cc1ccccc1-2)C(F)(F)F [N-(2-Fluorenyl)-2,2,2-trifluoroacetamide] | – | – | – | 160.4 | 156.6
O=C(NCc1cccnc1)Nc1ccc([N+](=O)[O-])cc1 [N-(4-Nitrophenyl)-N'-(3-pyridinylmethyl)urea] | 174.7 | 174.3 | – | 165.3 | –

More lines, now with the values ahead:

collision cross section in nitrogen [1] [Å²] | collision cross section in nitrogen [2] [Å²] | collision cross section in nitrogen [3] [Å²] | collision cross section in nitrogen [4] [Å²] | collision cross section in nitrogen (ion type: [M+], ion source: APCI, ion mode: Positive) [Å²] | SMILES
– | – | 152.3 | – | – | COc1ccccc1NC(=O)CC(C)=O [N-(2-Methoxyphenyl)-3-oxobutanamide]
– | – | 154.9 | 142.5 | – | CC(=O)CC(=O)Nc1ccccc1C [N-(2-Methylphenyl)-3-oxobutanamide]
– | – | – | 142.4 | – | CNC(=O)Nc1ccc(Cl)c(Cl)c1 [N-(3,4-Dichlorophenyl)-N'-methylurea]
– | – | – | 135.7 | – | NC(=O)Nc1ccc(Cl)c(Cl)c1 [N-(3,4-Dichlorophenyl)urea]
135.8 | 136.5 | – | 138.7 | – | CCC(=O)Nc1cccc(N)c1 [N-(3-Aminophenyl)propanamide]
– | 159.3 | – | 158.6 | – | C(=CNc1ccccc1)C=Nc1ccccc1 [N-(3-Anilino-2-propenylidene)aniline monohydrochloride]
– | – | – | 138.2 | – | CC(=O)Nc1ccc(C)c(Cl)c1 [N-(3-Chloro-4-methylphenyl)acetamide]
177.3 | 171 | – | 177.1 | – | COc1cc2ncnc(Nc3cccc(Cl)c3)c2cc1OC [N-(3-Chlorophenyl)-6,7-dimethoxyquinazolin-4-amine]
135.8 | 137.1 | – | – | – | C=C(C)C(=O)NCCCN(C)C [N-(3-Dimethylaminopropyl)methacrylamide]
154.6 | – | 167.3 | 155.9 | – | CCOc1ccc(NC(=O)CC(C)=O)cc1 [N-(4-Ethoxyphenyl)-3-oxobutanamide]
146.5 | – | 160.2 | 148.5 | – | COc1ccc(NC(=O)CC(C)=O)cc1 [N-(4-Methoxyphenyl)-3-oxobutanamide]
